These results are taken from ChEMBL document CHEMBL5653631, “A Potent and Selective ULK1 Inhibitor Suppresses Autophagy and Sensitizes Cancer Cells to Nutrient Stress” (iScience, 2018).

Assay [1] has as its target Serine/threonine-protein kinase SIK2 (Homo sapiens) (UniProt Q9H0K1). Description: Inhibition of human recombinant QIK at 15 nM related to control ULK1.
Assay [2] concerns the target Macrophage-stimulating protein receptor (Homo sapiens) (UniProt Q04912). Nature of the assay: Inhibition of human recombinant RON at 15 nM related to control ULK1.
For assay [3], the target named is Mitogen-activated protein kinase 11 (Homo sapiens) (UniProt Q15759). Description: Inhibition of human recombinant p38beta at 15 nM related to control ULK1.
Assay [4] deals with Serine/threonine-protein kinase B-raf (Homo sapiens) (UniProt P15056). Nature of the assay: Inhibition of human recombinant BRAF at 15 nM related to control ULK1.
Assay [5] deals with Serine/threonine-protein kinase WNK3 (Homo sapiens) (UniProt Q9BYP7). Nature of the assay: Inhibition of human recombinant Wnk3 at 15 nM related to control ULK1.
For assay [6], the target named is T1, Serine/threonine-protein kinase Sgk2 (Homo sapiens) (UniProt Q9HBY8).
T1 sequence (whole entry): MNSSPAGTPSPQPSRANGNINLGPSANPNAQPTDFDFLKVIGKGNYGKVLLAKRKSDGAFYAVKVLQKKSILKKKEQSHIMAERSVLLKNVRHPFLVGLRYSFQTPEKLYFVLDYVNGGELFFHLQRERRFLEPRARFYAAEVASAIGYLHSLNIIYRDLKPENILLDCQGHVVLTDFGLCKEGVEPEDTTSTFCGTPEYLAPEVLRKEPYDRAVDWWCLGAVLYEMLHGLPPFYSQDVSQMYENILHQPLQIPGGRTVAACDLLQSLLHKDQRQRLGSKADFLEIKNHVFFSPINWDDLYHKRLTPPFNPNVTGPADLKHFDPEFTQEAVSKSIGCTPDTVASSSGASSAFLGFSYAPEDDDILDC
Description: Inhibition of human recombinant SGK2 at 15 nM related to control ULK1.

For assay [7], the target named is Serine/threonine-protein kinase WNK2 (Homo sapiens) (UniProt Q9Y3S1). Description: Inhibition of human recombinant Wnk2 at 15 nM in presence of ATP by radiometric assay relative to control.
Serine/threonine-protein kinase WNK2 (Homo sapiens), sequence (Q9Y3S1 whole entry): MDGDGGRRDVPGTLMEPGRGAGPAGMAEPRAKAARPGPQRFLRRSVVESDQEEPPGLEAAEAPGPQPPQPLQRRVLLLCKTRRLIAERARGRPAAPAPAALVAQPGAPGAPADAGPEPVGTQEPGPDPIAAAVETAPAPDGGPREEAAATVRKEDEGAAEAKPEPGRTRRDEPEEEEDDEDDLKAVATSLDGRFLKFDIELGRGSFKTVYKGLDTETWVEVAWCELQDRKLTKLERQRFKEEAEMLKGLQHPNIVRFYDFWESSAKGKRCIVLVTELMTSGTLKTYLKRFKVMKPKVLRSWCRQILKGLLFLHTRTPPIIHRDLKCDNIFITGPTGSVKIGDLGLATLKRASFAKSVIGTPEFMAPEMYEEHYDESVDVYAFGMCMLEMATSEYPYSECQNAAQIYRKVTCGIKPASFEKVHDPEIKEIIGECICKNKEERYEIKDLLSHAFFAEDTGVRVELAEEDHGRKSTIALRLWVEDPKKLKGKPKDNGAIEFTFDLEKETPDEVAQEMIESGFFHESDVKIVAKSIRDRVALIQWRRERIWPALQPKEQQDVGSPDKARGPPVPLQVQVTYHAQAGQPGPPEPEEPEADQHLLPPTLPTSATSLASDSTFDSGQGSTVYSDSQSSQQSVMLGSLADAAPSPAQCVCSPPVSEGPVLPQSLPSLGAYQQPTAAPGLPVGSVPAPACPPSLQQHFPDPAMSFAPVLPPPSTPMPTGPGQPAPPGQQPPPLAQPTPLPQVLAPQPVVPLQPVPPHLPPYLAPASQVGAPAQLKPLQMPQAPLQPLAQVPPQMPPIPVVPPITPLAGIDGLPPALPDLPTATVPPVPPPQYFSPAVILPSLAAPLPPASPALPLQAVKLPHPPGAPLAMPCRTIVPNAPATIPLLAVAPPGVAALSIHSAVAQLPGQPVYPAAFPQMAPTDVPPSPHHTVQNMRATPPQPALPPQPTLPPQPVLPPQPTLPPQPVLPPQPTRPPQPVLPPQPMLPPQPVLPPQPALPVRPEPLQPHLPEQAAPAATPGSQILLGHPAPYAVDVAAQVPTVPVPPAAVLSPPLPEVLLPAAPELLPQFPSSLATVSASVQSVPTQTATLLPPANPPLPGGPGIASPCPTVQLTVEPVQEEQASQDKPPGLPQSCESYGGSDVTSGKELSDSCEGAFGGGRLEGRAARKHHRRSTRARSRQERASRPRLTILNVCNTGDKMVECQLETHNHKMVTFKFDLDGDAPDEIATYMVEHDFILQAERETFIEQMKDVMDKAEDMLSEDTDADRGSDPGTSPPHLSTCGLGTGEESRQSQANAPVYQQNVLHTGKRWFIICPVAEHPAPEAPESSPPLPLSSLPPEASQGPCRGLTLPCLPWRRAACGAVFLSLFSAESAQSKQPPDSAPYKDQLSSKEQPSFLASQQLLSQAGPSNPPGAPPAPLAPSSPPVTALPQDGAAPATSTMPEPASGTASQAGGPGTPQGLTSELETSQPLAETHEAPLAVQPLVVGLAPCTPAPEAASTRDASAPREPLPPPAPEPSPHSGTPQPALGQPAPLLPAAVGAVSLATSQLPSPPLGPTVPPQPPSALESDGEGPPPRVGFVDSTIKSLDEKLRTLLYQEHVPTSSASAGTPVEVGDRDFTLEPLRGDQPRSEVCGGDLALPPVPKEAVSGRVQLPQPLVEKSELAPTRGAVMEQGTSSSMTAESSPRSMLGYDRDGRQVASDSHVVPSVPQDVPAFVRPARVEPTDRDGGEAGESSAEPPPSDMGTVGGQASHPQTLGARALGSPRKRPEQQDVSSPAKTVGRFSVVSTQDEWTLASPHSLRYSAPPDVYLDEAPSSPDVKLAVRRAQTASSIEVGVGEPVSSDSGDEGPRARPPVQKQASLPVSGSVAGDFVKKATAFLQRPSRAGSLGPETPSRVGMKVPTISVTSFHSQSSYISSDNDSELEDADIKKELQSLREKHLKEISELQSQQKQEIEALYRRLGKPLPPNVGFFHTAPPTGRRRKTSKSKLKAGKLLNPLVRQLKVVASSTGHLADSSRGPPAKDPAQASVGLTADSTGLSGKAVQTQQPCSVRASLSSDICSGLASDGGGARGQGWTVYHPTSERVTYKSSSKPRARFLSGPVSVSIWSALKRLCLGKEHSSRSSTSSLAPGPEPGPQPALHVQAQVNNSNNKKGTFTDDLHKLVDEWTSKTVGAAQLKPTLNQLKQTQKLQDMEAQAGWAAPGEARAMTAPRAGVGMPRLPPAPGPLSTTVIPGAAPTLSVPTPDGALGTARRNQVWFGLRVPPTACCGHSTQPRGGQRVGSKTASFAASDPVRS
The target of assay [8] is Rho-associated protein kinase 2 (Homo sapiens) (UniProt O75116). Nature of the assay: Inhibition of human recombinant ROCK2 at 15 nM in presence of ATP by radiometric assay relative to control.
The target of assay [9] is Cyclin-dependent kinase 4 (Homo sapiens) (UniProt P11802). Nature of the assay: Inhibition of human recombinant CDK4 at 40 nM related to control ULK1.
Cyclin-dependent kinase 4 (Homo sapiens), sequence (P11802 whole entry): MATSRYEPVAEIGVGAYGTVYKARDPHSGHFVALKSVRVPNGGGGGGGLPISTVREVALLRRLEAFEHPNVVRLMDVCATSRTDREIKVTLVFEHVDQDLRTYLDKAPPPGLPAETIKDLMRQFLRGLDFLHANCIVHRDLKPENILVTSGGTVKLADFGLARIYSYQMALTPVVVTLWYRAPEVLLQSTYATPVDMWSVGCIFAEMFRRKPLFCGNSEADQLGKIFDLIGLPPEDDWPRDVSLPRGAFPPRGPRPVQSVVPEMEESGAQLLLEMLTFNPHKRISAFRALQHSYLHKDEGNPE
Assay [10] addresses Mitogen-activated protein kinase 1 (Homo sapiens) (UniProt P28482). Description: Inhibition of human recombinant Erk2 at 40 nM related to control ULK1.
Assay [11] addresses Dual specificity protein kinase CLK2 (Homo sapiens) (UniProt P49760). Nature of the assay: Inhibition of human recombinant CLK2 at 500 nM in presence of ATP by radiometric assay relative to control.
For assay [12], the target named is Calcium/calmodulin-dependent protein kinase type 1D (Homo sapiens) (UniProt Q8IU85). Nature of the assay: Inhibition of human recombinant CaMK1d at 500 nM in presence of ATP by radiometric assay relative to control.
Assay [13] concerns the target Cyclin-dependent kinase 7 (Homo sapiens) (UniProt P50613). Nature of the assay: Inhibition of human recombinant CDK7 at 500 nM related to control ULK1.
Assay [14] concerns the target Focal adhesion kinase 1 (Homo sapiens) (UniProt Q05397). Nature of the assay: Inhibition of human recombinant FAK at 500 nM related to control ULK1.
Assay [15] has as its target T2, Serine/threonine-protein kinase Nek11 (Homo sapiens) (UniProt Q8NG66).
T2 sequence (whole entry): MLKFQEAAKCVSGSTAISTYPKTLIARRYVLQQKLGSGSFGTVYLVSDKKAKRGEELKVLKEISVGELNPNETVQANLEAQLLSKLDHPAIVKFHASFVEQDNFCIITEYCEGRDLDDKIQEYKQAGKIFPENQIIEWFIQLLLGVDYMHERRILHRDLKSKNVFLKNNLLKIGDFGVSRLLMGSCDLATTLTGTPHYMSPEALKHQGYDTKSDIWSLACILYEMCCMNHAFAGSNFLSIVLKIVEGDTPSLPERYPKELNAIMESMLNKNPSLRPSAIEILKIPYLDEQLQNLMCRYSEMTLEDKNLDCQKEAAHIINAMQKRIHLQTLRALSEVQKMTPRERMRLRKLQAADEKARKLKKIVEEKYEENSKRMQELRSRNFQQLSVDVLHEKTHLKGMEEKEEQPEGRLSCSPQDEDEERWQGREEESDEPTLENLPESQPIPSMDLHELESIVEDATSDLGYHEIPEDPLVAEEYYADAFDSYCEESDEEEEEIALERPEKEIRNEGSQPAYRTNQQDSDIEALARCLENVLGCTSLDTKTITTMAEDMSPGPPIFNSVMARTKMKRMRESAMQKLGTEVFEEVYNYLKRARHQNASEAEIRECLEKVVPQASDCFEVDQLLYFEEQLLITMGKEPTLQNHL
Description: Inhibition of human recombinant NEK11 at 500 nM related to control ULK1.

Assay [16] concerns the target MAP kinase-interacting serine/threonine-protein kinase 2 (Homo sapiens, UniProt Q9HBH9). Description: Inhibition of human recombinant MNK2 at 500 nM in presence of ATP by radiometric assay relative to control.
Assay [17] deals with cAMP-dependent protein kinase catalytic subunit beta (Homo sapiens) (UniProt P22694). Description: Inhibition of human recombinant PKACbeta at 500 nM related to control ULK1.
In assay [18] the target is T3, Receptor-interacting serine/threonine-protein kinase 1 (Homo sapiens) (UniProt Q13546).
T3 sequence (whole entry): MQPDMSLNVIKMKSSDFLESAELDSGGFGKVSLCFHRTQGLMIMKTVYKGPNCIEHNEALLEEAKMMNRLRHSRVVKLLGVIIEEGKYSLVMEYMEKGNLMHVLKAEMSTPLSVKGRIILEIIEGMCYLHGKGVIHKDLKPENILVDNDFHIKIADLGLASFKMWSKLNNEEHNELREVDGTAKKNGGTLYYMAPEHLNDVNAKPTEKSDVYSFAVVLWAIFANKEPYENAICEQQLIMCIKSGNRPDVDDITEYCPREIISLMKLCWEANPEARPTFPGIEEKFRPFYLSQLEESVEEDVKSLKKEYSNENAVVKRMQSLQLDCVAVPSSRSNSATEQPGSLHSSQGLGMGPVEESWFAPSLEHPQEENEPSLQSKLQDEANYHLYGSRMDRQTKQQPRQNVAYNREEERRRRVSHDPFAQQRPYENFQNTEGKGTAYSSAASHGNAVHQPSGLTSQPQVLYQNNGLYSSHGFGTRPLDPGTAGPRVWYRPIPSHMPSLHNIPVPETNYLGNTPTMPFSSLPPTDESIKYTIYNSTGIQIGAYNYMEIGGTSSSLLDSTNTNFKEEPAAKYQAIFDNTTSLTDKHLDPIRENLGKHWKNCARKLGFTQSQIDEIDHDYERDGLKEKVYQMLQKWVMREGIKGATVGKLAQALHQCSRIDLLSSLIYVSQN
Description: Inhibition of human recombinant RIPK1 at 500 nM in presence of ATP by radiometric assay relative to control.

Macrophage-stimulating protein receptor (Homo sapiens), sequence (Q04912 25-304 limits assumed): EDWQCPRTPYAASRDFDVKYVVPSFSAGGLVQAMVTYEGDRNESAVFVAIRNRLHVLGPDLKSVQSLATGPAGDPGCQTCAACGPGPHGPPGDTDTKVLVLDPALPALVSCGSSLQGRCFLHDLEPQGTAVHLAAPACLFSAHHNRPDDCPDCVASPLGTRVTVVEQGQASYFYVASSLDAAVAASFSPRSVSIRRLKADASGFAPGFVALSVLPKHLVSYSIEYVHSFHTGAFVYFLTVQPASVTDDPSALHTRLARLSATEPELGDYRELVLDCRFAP
Macrophage-stimulating protein receptor (Homo sapiens), sequence (Q04912 310-1400 limits assumed): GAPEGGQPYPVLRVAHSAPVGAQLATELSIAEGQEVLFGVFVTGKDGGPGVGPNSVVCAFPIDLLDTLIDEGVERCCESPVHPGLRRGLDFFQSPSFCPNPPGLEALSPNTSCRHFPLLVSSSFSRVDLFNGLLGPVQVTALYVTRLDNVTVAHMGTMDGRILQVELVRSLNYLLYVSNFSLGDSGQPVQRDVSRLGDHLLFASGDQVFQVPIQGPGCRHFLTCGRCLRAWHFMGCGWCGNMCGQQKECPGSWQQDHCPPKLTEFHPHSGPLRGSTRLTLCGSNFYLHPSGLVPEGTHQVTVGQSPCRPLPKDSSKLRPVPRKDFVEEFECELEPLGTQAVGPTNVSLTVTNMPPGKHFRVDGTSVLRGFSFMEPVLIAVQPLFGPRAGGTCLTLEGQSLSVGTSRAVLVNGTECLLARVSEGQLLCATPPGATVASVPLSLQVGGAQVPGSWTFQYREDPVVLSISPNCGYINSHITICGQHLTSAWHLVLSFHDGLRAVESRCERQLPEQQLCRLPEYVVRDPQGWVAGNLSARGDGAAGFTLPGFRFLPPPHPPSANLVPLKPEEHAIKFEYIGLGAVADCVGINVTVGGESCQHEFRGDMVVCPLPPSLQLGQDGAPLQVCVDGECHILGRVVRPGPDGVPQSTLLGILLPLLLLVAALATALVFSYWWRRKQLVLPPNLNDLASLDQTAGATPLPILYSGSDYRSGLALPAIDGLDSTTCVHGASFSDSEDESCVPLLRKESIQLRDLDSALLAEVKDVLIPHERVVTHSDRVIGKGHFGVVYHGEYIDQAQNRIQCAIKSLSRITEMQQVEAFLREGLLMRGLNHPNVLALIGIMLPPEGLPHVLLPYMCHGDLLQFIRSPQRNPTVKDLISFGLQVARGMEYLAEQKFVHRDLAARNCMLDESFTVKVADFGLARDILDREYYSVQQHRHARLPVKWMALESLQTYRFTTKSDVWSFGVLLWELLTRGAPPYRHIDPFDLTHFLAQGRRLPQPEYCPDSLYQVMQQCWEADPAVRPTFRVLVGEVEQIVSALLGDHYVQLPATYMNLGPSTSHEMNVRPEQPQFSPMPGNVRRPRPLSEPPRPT
Dual specificity protein kinase CLK2 (Homo sapiens), sequence (P49760 whole entry, looked up): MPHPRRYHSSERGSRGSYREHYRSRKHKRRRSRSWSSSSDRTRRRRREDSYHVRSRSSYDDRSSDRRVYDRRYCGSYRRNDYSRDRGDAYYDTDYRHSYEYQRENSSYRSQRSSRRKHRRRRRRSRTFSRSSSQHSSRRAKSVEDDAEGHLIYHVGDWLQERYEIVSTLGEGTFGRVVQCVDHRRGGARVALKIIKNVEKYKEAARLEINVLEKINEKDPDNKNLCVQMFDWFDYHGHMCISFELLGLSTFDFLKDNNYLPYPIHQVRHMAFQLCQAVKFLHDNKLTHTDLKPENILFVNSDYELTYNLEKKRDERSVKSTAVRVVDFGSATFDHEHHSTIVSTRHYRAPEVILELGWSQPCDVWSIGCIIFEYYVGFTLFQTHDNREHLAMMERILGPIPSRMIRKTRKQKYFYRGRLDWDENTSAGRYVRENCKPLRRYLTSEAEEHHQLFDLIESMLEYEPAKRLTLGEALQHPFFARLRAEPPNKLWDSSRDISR
Mitogen-activated protein kinase 1 (Homo sapiens), sequence (P28482 whole entry): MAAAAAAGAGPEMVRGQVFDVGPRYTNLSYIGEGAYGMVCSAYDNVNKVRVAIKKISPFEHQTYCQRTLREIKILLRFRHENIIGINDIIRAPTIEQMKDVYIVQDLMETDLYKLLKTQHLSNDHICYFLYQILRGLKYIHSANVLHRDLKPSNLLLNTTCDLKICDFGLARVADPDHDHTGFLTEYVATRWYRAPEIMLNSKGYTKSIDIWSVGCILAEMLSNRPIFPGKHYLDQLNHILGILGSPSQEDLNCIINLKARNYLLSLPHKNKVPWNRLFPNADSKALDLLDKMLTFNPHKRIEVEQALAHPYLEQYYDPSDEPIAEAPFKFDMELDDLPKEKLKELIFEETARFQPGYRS

The term inhibition denotes the percentage by which the read-out fell short of the control. Consider `CC(C)[C@H](NC(=O)c1cc(-c2cnn3cc(-c4ccc(OCCN5CCCCC5)cc4)cnc23)cs1)C(F)(F)F`, for which the fold change (FC) in assay [1] stood at 1.02; in assay [2], 0.02; in assay [3], 0.01; in assay [4] it was 0.13; in assay [5] it was 0; in assay [6], 0. In addition, the inhibition in [7] was 2%; in assay [8], 0%.
For the molecule `O=C(N[C@@H](C1CC1)C(F)(F)F)c1cc(-c2cnn3cc(-c4ccc(F)cc4)cnc23)cs1`, the fold change (FC) in assay [9] and in [10] was 0 each time.
Turning to `CNC(=O)c1ccccc1Oc1nc(Nc2cc(OC)c(OC)c(OC)c2)ncc1Br`, the inhibition in [11] stood at 7%; in assay [12], 5%; in assay [16] it was 2%; in [18] it was 7%. Moreover, the fold change (FC) in assay [13] was determined as 0.39; in assay [14], 0.96; in assay [15], 0.11; in assay [17], 0.
